Here are results for 48 compounds from patent US20160090556A1, “PRODUCTS COMPRISING MALODOR REDUCTION MATERIALS” (The Procter & Gamble Company, priority 2014, published 2016).

One data set is described as follows: Liquid dish neat product liquid-air partition coefficient. Format: physicochemical.
Details: not given
As for `CC1CCC2(O)C(C)(C)C3CCC2(C)C1C3` (stereo not drawn) [Material 933], the “Log of liquid dish neat product liquid-air partition coefficient (Comment Code K/L)” value (from here on “Log … (Comment Code K/L)”) is “K (Log of liquid dish neat product liquid-air partition coefficient greater than or equal to −7)”.

With `CC(=O)C=CC12OC1(C)CCCC2(C)C` (stereo not drawn) [Material 636], the “Log … (Comment Code K/L)” value is “K (Log of liquid dish neat product liquid-air partition coefficient greater than or equal to −7)”.

In the case of `CC1CC(C)(c2ccccc2)CO1` (stereo not drawn) [Material 1006], the “Log … (Comment Code K/L)” value is listed as “K (Log of liquid dish neat product liquid-air partition coefficient greater than or equal to −7)”.

Take `COC1CC2CC1C1CC(C=O)CC21` (stereo not drawn) [Material 1026]: the “Log … (Comment Code K/L)” value is on record as “K (Log of liquid dish neat product liquid-air partition coefficient greater than or equal to −7)”.

Take `C=CC(=C)CCC=C(C)CCC=C(C)C` [Material 628]: the “Log … (Comment Code K/L)” value is recorded as “K (Log of liquid dish neat product liquid-air partition coefficient greater than or equal to −7)”.

`C=CC(C)(CCC=C(C)C)OC(C)OCC` (stereo not drawn) [Material 916]: the “Log … (Comment Code K/L)” value was “K (Log of liquid dish neat product liquid-air partition coefficient greater than or equal to −7)”.

On to `COC(Cc1ccccc1)OC` [Material 627], for which the “Log … (Comment Code K/L)” value is “K (Log of liquid dish neat product liquid-air partition coefficient greater than or equal to −7)”.

For the compound `CC(=O)OC(C)CC/C=C(\C)CCC=C(C)C` (stereo not drawn) [Material 890], the “Log … (Comment Code K/L)” value is “K (Log of liquid dish neat product liquid-air partition coefficient greater than or equal to −7)”.

`C/C(=C/C#N)CCc1ccccc1` [Material 892]: the “Log … (Comment Code K/L)” value is “K (Log of liquid dish neat product liquid-air partition coefficient greater than or equal to −7)”.

For `CC1C(C)(C)C2CCC3CC(C)(C)OC3C2C1(C)C` (stereo not drawn) [Material 680], the “Log … (Comment Code K/L)” value is given as “K (Log of liquid dish neat product liquid-air partition coefficient greater than or equal to −7)”.

With `CCC=C(C)C(O)CCCCC` (stereo not drawn) [Material 1104], the “Log … (Comment Code K/L)” value is listed as “K (Log of liquid dish neat product liquid-air partition coefficient greater than or equal to −7)”.

Take `CC(C)C1=CCC(C)(O)CC1` (stereo not drawn) [Material 982]: the “Log … (Comment Code K/L)” value is on record as “K (Log of liquid dish neat product liquid-air partition coefficient greater than or equal to −7)”.

On to `CC12CCC(C(=O)C1=O)C2(C)C` (stereo not drawn) [Material 587], for which the “Log … (Comment Code K/L)” value is on record as “K (Log of liquid dish neat product liquid-air partition coefficient greater than or equal to −7)”.

For `OCCOc1ccccc1` [Material 834], the “Log … (Comment Code K/L)” value is recorded as “K (Log of liquid dish neat product liquid-air partition coefficient greater than or equal to −7)”.

Regarding `C=C1CCCC(C)(C)C2C=C(C)CCC12` (stereo not drawn) [Material 707], the “Log … (Comment Code K/L)” value was “K (Log of liquid dish neat product liquid-air partition coefficient greater than or equal to −7)”.

Regarding `CC(=CCC1CC=C(C)C1(C)C)CO` (stereo not drawn) [Material 908], the “Log … (Comment Code K/L)” value was “K (Log of liquid dish neat product liquid-air partition coefficient greater than or equal to −7)”.

In the case of `CC(C)(O)CCc1ccccc1` [Material 639], the “Log … (Comment Code K/L)” value was “K (Log of liquid dish neat product liquid-air partition coefficient greater than or equal to −7)”.

Take `CCCCCCCCC=CC=O` [Material 828]: the “Log … (Comment Code K/L)” value is reported as “K (Log of liquid dish neat product liquid-air partition coefficient greater than or equal to −7)”.

Take `CCCCCCCCCCCCCO` [Material 1090]: the “Log … (Comment Code K/L)” value is “K (Log of liquid dish neat product liquid-air partition coefficient greater than or equal to −7)”.

As to `C=CCCCCCCCCCO` [Material 870], the “Log … (Comment Code K/L)” value is “K (Log of liquid dish neat product liquid-air partition coefficient greater than or equal to −7)”.

Turning to `CCC(=O)OC(C)(C)C1CC=C(C)CC1` (stereo not drawn) [Material 686], the “Log … (Comment Code K/L)” value is “K (Log of liquid dish neat product liquid-air partition coefficient greater than or equal to −7)”.

Staying with this data set, now noted: class code letter within Comment Code.
As to `CC1CCC(C(C)(C)O)CC2=C1CCC2C` (stereo not drawn) [Material 292], the “Log … (Comment Code K/L)” value was “K (Log of liquid dish neat product liquid-air partition coefficient greater than or equal to −7)”.

With `C=CCCC(=O)C1CCCC(C)(C)C1` (stereo not drawn) [Material 334], the “Log … (Comment Code K/L)” value is on record as “K (Log of liquid dish neat product liquid-air partition coefficient greater than or equal to −7)”.

Turning to `O=C1CCCCCCCCCCCCCC1` [Material 480], the “Log … (Comment Code K/L)” value is “K (Log of liquid dish neat product liquid-air partition coefficient greater than or equal to −7)”.

`C=C1C=CC(C(C)C)CCC(C)=CCC1` (stereo not drawn) [Material 296]: the “Log … (Comment Code K/L)” value is recorded as “K (Log of liquid dish neat product liquid-air partition coefficient greater than or equal to −7)”.

On to `CC=Cc1ccc(OC)c(OC)c1` [Material 108], for which the “Log … (Comment Code K/L)” value is reported as “K (Log of liquid dish neat product liquid-air partition coefficient greater than or equal to −7)”.

On to `CC(CO)C1CCCCCCCCCCC1` (stereo not drawn) [Material 252], for which the “Log … (Comment Code K/L)” value was “K (Log of liquid dish neat product liquid-air partition coefficient greater than or equal to −7)”.

With `c1ccc(CCc2ccccc2)cc1` [Material 457], the “Log … (Comment Code K/L)” value is “K (Log of liquid dish neat product liquid-air partition coefficient greater than or equal to −7)”.

As to `CC1(C)CCCC2=C1CC(C=O)CC2` (stereo not drawn) [Material 486], the “Log … (Comment Code K/L)” value is reported as “K (Log of liquid dish neat product liquid-air partition coefficient greater than or equal to −7)”.

Consider `CCCCCCCCCC(C)C(OC)OC` (stereo not drawn) [Material 101], for which the “Log … (Comment Code K/L)” value is recorded as “K (Log of liquid dish neat product liquid-air partition coefficient greater than or equal to −7)”.

In the case of `CC(=O)/C=C/C1C(C)CCC(C)C1(C)C` (stereo not drawn) [Material 71], the “Log … (Comment Code K/L)” value is on record as “K (Log of liquid dish neat product liquid-air partition coefficient greater than or equal to −7)”.

Consider `CCOC(=O)C1C(CC)=CCCC1(C)C` (stereo not drawn) [Material 294], for which the “Log … (Comment Code K/L)” value was “K (Log of liquid dish neat product liquid-air partition coefficient greater than or equal to −7)”.

Regarding `CCC(=O)OC1CC2CCC1(C)C2(C)C` (stereo not drawn) [Material 228], the “Log … (Comment Code K/L)” value is reported as “K (Log of liquid dish neat product liquid-air partition coefficient greater than or equal to −7)”.

As to `CC(=O)c1oc2ccccc2c1C` [Material 61], the “Log … (Comment Code K/L)” value is “K (Log of liquid dish neat product liquid-air partition coefficient greater than or equal to −7)”.

With `CCCCCCOC(=O)c1ccccc1` [Material 271], the “Log … (Comment Code K/L)” value was “K (Log of liquid dish neat product liquid-air partition coefficient greater than or equal to −7)”.

For `CCC=CCC1C(=O)CCC1CC(=O)OC` (stereo not drawn) [Material 112], the “Log … (Comment Code K/L)” value was “K (Log of liquid dish neat product liquid-air partition coefficient greater than or equal to −7)”.

Take `CCCCCCCCC1CCC(=O)O1` (stereo not drawn) [Material 330]: the “Log … (Comment Code K/L)” value is reported as “K (Log of liquid dish neat product liquid-air partition coefficient greater than or equal to −7)”.

Turning to `c1ccc(CCCc2ccccn2)cc1` [Material 497], the “Log … (Comment Code K/L)” value is “K (Log of liquid dish neat product liquid-air partition coefficient greater than or equal to −7)”.

Consider `CCCCCCCC(=O)OCCCCCC` [Material 263], for which the “Log … (Comment Code K/L)” value is reported as “K (Log of liquid dish neat product liquid-air partition coefficient greater than or equal to −7)”.

The data set is the same for the next values; noted with them: code letters K, L.
As for `CC1CCC2(O)C(C)(C)C3CCC2(C)C1C3` (stereo not drawn) [Material 933], the “Comment Code: Log of liquid dish neat product liquid-air partition coefficient” value (shortened to “Comment Code: Log”) is given as “K (Log of liquid dish neat product liquid-air partition coefficient greater than or equal to −7)”.

Regarding `C/C=C/c1ccc(O)c(OC)c1` [Material 1084], the “Comment Code: Log” value is on record as “K (Log of liquid dish neat product liquid-air partition coefficient greater than or equal to −7)”.

Regarding `COC(Cc1ccccc1)OC` [Material 627], the “Comment Code: Log” value was “K (Log of liquid dish neat product liquid-air partition coefficient greater than or equal to −7)”.

For the compound `CC1C(C)(C)C2CCC3CC(C)(C)OC3C2C1(C)C` (stereo not drawn) [Material 680], the “Comment Code: Log” value is “K (Log of liquid dish neat product liquid-air partition coefficient greater than or equal to −7)”.

As for `CCC(=O)OC(C)c1ccccc1` (stereo not drawn) [Material 96], the “Comment Code: Log” value was “K (Log of liquid dish neat product liquid-air partition coefficient greater than or equal to −7)”.

On to `C/C=C(\C)C(=O)OCCc1ccccc1` [Material 960], for which the “Comment Code: Log” value is on record as “K (Log of liquid dish neat product liquid-air partition coefficient greater than or equal to −7)”.

`CCC(C)C(=O)N(C)c1ccccc1` (stereo not drawn) [Material 314]: the “Comment Code: Log” value is “K (Log of liquid dish neat product liquid-air partition coefficient greater than or equal to −7)”.

In the case of `O=COCCc1ccccc1` [Material 956], the “Comment Code: Log” value was “K (Log of liquid dish neat product liquid-air partition coefficient greater than or equal to −7)”.

`CC1CCOC(c2ccccc2)C1` (stereo not drawn) [Material 420]: the “Comment Code: Log” value is listed as “K (Log of liquid dish neat product liquid-air partition coefficient greater than or equal to −7)”.

On to `C/C=C\c1ccc(O)c(OC)c1` [Material 528], for which the “Comment Code: Log” value is “K (Log of liquid dish neat product liquid-air partition coefficient greater than or equal to −7)”.

As for `N#CC=Cc1ccccc1` [Material 549], the “Comment Code: Log” value is “K (Log of liquid dish neat product liquid-air partition coefficient greater than or equal to −7)”.

Turning to `COc1cc(C)cc(O)c1` [Material 811], the “Comment Code: Log” value was “K (Log of liquid dish neat product liquid-air partition coefficient greater than or equal to −7)”.
